# From PMC9325719 (Nature Communications, 2022)
# Biological target: Na+-NQR (Na+-pumping NADH-ubiquinone oxidoreductase), inhibitor site at NqrB N-terminal region (Vibrio cholerae, UniProt A5F5X0, E157A)
# Details: substrates NADH and ubiquinone-1; 50% inhibition not reached at highest concentration; mutant activity 50-60% lower than wild type
compound,measurement,value
CCCCCCCC[C@H]1O[C@H]1C/C=C/C=C/[C@H](O)CC(=O)NC1=C[C@](C)(CC)OC1=O [korormicin A],IC50,> 2000 nM
